Data published in PubChem BioAssay AID1919010 (Molecular Pharmacology Branch, DTP, NCI, 2023).

Tested on: Hs578T complex spheroid growth, percent test/control
Experiment: Anticancer human tumor Hs578T cell line growth inhibition [AhR];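 note: luminescent viability signal as a proxy for spheroid growth; spheroids exposed to agents for one week after three days of growth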
Conditions: for IC50: curve of first compound; for viability, T/C: stronger effect = lower value
Excerpt: Multicellular complex tumor spheroid response to aryl hydrocarbon receptor antagonists in combination with a variety of drugs and investigational agents in selected tumor cell lines
The current study was undertaken to assess response to aryl hydrocarbon receptor antagonists in combination with standard-of-care drugs and investigational agents in solid tumor complex spheroid models. Complex spheroids include a stromal component modeled by human endothelial cells (HUVEC) and fibroblasts modeled by human mesenchymal stem cells (MSCs). The concentration ranges selected for each drug and investigational agent were based upon clinically achievable concentrations if the clinical Cmax of the agent was known.
Compounds. The drugs and investigational agents: BAY 2416964 (NSC825713), GNF351 (NSC835774), CH-223191 (NSC835775), CPI-455 (NSC825282), aza-TdCyd (NSC777586), decitabine (NSC127716), belinostat (NSC758774), entinostat (NSC756642), pevonedistat (NSC761192), tazemetostat (NSC777109), talazoparib (NSC765396), olaparib (NSC753686), selinexor (NSC780203), nedisertib (M3814, NSC802822), bortezomib (NSC756655), venetoclax (NSC766270), doxorubicin (NSC123127), elimusertib (BAY189344, NSC800525), ceralasertib (AZD6738, NSC777638), TAK-243 (NSC785004), alisertib (NSC759677), etoposide (NSC141540), topotecan (NSC609699), eribulin (NSC707389), gemcitabine (NSC613327), carboplatin (NSC241240), cisplatin (NSC119875), and SN-38 (NSC673596) were obtained from the National Cancer Institute (NCI) Developmental Therapeutics Program Chemical Repository (32). The FDA-approved anticancer drug set is available from the Developmental Therapeutics Program at https://dtp.cancer.gov/organization/dscb/obtaining/available plates.htm. […] The stock solutions were prepared in dimethyl sulfoxide (DMSO, Sigma-Aldrich, St. Louis, MO, cat. D2650), except for the platinum compounds which were prepared in saline (Quality Biological, Gaithersburg, MD, cat. 114-055-101), at 800-fold the tested concentration and stored at -70 degrees C prior to their use. All drugs and investigational agents were tested over a range starting from a high concentration at or near the clinical Cmax and decreasing in half-log increments. If the clinical Cmax for an agent had not been determined, the highest concentration tested was 10 microM (Table 1).
Cell Culture. All cells were maintained in an incubator at 37 degrees C and 5% CO2 with 95% humidity. The PDC lines were cultured according to standard operating procedures established by the NCI PDMR (https://pdmr.cancer.gov). Briefly, all PDCs were thawed and cultured in Matrigel-coated flasks prepared with a working solution of 1X Ham's F-12 nutrient mix, without supplementation (Invitrogen, Waltham, MA, cat. 11765054), 100 U/mL penicillin-streptomycin (Invitrogen, cat. 15140122), and 2.5% Matrigel (Corning Inc., Corning, NY, cat. 354248) for the first three passages. All PDCs were cultured in complete DMEM/F-12 media containing advanced DMEM/F-12 (Invitrogen, cat. 12634028), 4.9% defined fetal bovine serum, heat inactivated (HyClone Laboratories Inc., Logan, UT, cat. SH30070.03HI), 389 ng/mL hydrocortisone (Sigma-Aldrich, cat. H4001), 9.7 ng/mL human EGF recombinant protein (Invitrogen, cat. PHG0313), 23.4 microg/mL adenine (Sigma-Aldrich, cat. A2786), 97.3 U/mL penicillin-streptomycin (Invitrogen, cat. 15140122), 1.9 mM L-glutamine (Invitrogen, cat. 25030081), and 9.7 microM Y-27632 dihydrochloride (Tocris Bioscience, Bristol, United Kingdom, cat. 1254). The PDCs were cultured in complete DMEM/F12 media without 10 microM Y-27632 dihydrochloride for at least two passages prior to the screen. The established cell lines NCI-H1341 and […] were cultured in DMEM/F-12, HEPES (Invitrogen, cat. 11330032), 5% defined fetal bovine serum (HyClone Laboratories Inc., cat. SH30070.03), ITS premix universal culture supplement [insulin (5 microg/mL), transferrin (5 microg/mL), and selenious acid (5 ng/mL)] […]

SMILES: O=C(C=Cn1cnc(-c2cc(C(F)(F)F)cc(C(F)(F)F)c2)n1)NNc1cnccn1 + Cc1cncc(-c2nc(NCCc3c[nH]c4ccccc34)c3ncn(C(C)C)c3n2)c1
- IC50 (second compound 0.1 µM): 402 nM
- IC50 (second compound 0.316 µM): 352 nM
- IC50 (second compound 1 µM): 346 nM
- IC50 (second compound 3.16 µM): 148 nM
- IC50 (second compound 10 µM): < 9.49 nM
- viability, T/C (second compound 0.1 µM, first compound 0.00949 µM): 113%
- viability, T/C (second compound 0.1 µM, first compound 0.03 µM): 100%
- viability, T/C (second compound 0.1 µM, first compound 0.0949 µM): 93.7%
- viability, T/C (second compound 0.1 µM, first compound 0.3 µM): 61.6%
- viability, T/C (second compound 0.1 µM, first compound 0.949 µM): 19.2%
- viability, T/C (second compound 0.1 µM, first compound 3 µM): 19.4%
- viability, T/C (second compound 0.316 µM, first compound 0.00949 µM): 110%
- viability, T/C (second compound 0.316 µM, first compound 0.03 µM): 110%
- viability, T/C (second compound 0.316 µM, first compound 0.0949 µM): 96.4%
- viability, T/C (second compound 0.316 µM, first compound 0.3 µM): 55%
- viability, T/C (second compound 0.316 µM, first compound 0.949 µM): 21.9%
- viability, T/C (second compound 0.316 µM, first compound 3 µM): 19.1%
- viability, T/C (second compound 1 µM, first compound 0.00949 µM): 101%
- viability, T/C (second compound 1 µM, first compound 0.03 µM): 103%
- viability, T/C (second compound 1 µM, first compound 0.0949 µM): 93.2%
- viability, T/C (second compound 1 µM, first compound 0.3 µM): 55.3%
- viability, T/C (second compound 1 µM, first compound 0.949 µM): 17.2%
- viability, T/C (second compound 1 µM, first compound 3 µM): 19.2%
- viability, T/C (second compound 3.16 µM, first compound 0.00949 µM): 84.6%
- viability, T/C (second compound 3.16 µM, first compound 0.03 µM): 71.6%
- viability, T/C (second compound 3.16 µM, first compound 0.0949 µM): 59.4%
- viability, T/C (second compound 3.16 µM, first compound 0.3 µM): 39%
- viability, T/C (second compound 3.16 µM, first compound 0.949 µM): 16%
- viability, T/C (second compound 3.16 µM, first compound 3 µM): 14.6%
- viability, T/C (second compound 10 µM, first compound 0.00949 µM): 6.63%
- viability, T/C (second compound 10 µM, first compound 0.03 µM): 4.78%
- viability, T/C (second compound 10 µM, first compound 0.0949 µM): 2.83%
- viability, T/C (second compound 10 µM, first compound 0.3 µM): 1.17%
- viability, T/C (second compound 10 µM, first compound 0.949 µM): 1.46%
- viability, T/C (second compound 10 µM, first compound 3 µM): 1.56%
